Where a name gives a salt, the structure may show the parent alone.
Target: KHK (Homo sapiens (Human), UniProt P50053)
Assay: In Vitro KHK Enzyme Assay (HTMS);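 note: primary screen measuring inhibition of KHK-catalysed conversion of D-fructose into fructose 1-phosphate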
Format: biochemical
Settings: 200 μM fructose, 100 μM ATP, 2 nM KHK, 60 min at 25° C.; Fructose-1-P detected by high throughput mass spectrometry

KHK, sequence (P50053 whole entry): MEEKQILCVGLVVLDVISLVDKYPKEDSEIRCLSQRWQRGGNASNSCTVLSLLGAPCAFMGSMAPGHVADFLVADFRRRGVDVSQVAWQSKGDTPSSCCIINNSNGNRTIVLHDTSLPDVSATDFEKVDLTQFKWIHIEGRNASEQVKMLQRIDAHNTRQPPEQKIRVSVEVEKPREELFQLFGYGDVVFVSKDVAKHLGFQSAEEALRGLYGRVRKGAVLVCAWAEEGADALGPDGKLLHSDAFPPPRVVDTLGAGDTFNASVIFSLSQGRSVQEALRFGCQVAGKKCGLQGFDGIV

Row | Compound | IC50 [nM]
1 | CSc1nn(-c2ccccc2)c2cc(C3=CCN(C(=O)CCN)CC3)ccc12 [Compound 149, 3-Amino-1-[4-(3-methylsulfanyl-1-phenyl-1H-indazol-6-yl)-3,6-dihydro-2H-pyridin-1-yl]-propan-1-one] | 480
2 | COc1nn(-c2ccccc2)c2cc(NC(=O)c3ccc4[nH]cnc4c3)ccc12 [Compound 80, N-(3-methoxy-1-phenyl-1H-indazol-6-yl)-1H-benzo[d]imidazole-5-carboxamide] | 4500
3 | Cc1nn(-c2ccccc2)c2cc(N3CCN(C4CCNC4)CC3)ccc12 (stereo not shown) [Compound 63, 3-Methyl-1-phenyl-6-(4-(pyrrolidin-3-yl)piperazin-1-yl)-1H-indazole hydrochloride] | 3750
4 | CSc1nn(-c2ccc([N+](=O)[O-])cc2)c2cc(C3=CCNCC3)ccc12 [Compound 124, 3-Methylsulfanyl-1-(4-nitro-phenyl)-6-(1,2,3,6-tetrahydro-pyridin-4-yl)-1H-indazole] | 490
5 | CSc1nn(-c2ccccc2)c2cc(NC(=O)C3(N)CCNCC3)ccc12 [Compound 157, 4-Amino-piperidine-4-carboxylic acid (3-methylsulfanyl-1-phenyl-1H-indazol-6-yl)-amide] | 300
6 | CCc1nn(-c2ccccc2)c2cc(N3CCC(N4CCNCC4)CC3)ccc12 [Compound 36, 3-Ethyl-1-phenyl-6-(4-piperazin-1-yl-piperidin-1-yl)-1H-indazole hydrochloride] | 890
7 | CSc1nn(-c2ccccc2)c2cc(N3CCN(CC4CCCNC4)C3=O)ccc12 (stereo not shown) [Compound 28, 1-(3-(Methylthio)-1-phenyl-1H-indazol-6-yl)-3-(piperidin-3-ylmethyl)imidazolidin-2-one hydrochloride] | 3040
8 | CSc1nn(-c2ccccc2)c2cc(N3CCN(C(=O)c4ccncc4)CC3)ccc12 [Compound 17, (4-(3-(Methylthio)-1-phenyl-1H-indazol-6-yl)piperazin-1-yl)(pyridin-4-yl)methanone] | 2030
9 | COc1ccc(-n2nc(SC)c3ccc(N4CCN(C5CCNCC5)CC4)cc32)cc1 [Compound 106, 1-(4-Methoxy-phenyl)-3-methylsulfanyl-6-(4-piperidin-4-yl-piperazin-1-yl)-1H-indazole] | 360
10 | CSc1nn(-c2ccccc2)c2cc(N3CCN(C(=O)C4CCNCC4)CC3)ccc12 [Compound 34, (4-(3-(Methylthio)-1-phenyl-1H-indazol-6-yl)piperazin-1-yl)(piperidin-4-yl)methanone hydrochloride] | 830
11 | CCc1nn(-c2ccccc2)c2cc(N3CCN(C)CC3)ccc12 [Compound 54, 3-Ethyl-6-(4-methylpiperazin-1-yl)-1-phenyl-1H-indazole] | 4520
12 | CSc1nn(-c2ccccc2)c2cc(C(O)c3ccncc3)ccc12 (stereo not shown) [Compound 137, (3-Methylsulfanyl-1-phenyl-1H-indazol-6-yl)-pyridin-4-yl-methanol] | > 2000
13 | CSc1nn(-c2ccccc2)c2cc(N3CCC(N4CCNCC4)C3)ccc12 (stereo not shown) [Compound 19, 3-(Methylthio)-1-phenyl-6-(3-(piperazin-1-yl)pyrrolidin-1-yl)-1H-indazole hydrochloride] | 560
14 | CSc1nn(-c2ccc([N+](=O)[O-])cc2)c2cc(C(=O)NC3CCNCC3)ccc12 [Compound 110, 3-Methylsulfanyl-1-(4-nitro-phenyl)-1H-indazole-6-carboxylic acid piperidin-4-ylamide] | 9830
15 | CSc1nn(-c2ccccc2)c2cc(NCCC3CCNCC3)ccc12 [Compound 166, (3-Methylsulfanyl-1-phenyl-1H-indazol-6-yl)-(2-piperidin-4-yl-ethyl)-amine] | 600
16 | CSc1nn(-c2ccccc2)c2cc(N3CC4CC3CN4)ccc12 (stereo not shown) [Compound 10, 2-(3-(methylthio)-1-phenyl-1H-indazol-6-yl)-2,5-diaza-bicyclo[2.2.1]heptane hydrochloride] | 710
17 | CSc1nn(-c2ccccc2)c2cc(N3CCN(C(=O)c4ccccn4)CC3)ccc12 [Compound 30] | 16400
18 | CSc1nn(-c2ccccc2)c2cc(C=Cc3ccccn3)ccc12 [Compound 155, 3-Methylsulfanyl-1-phenyl-6-(2-pyridin-2-yl-vinyl)-1H-indazole] | > 10000
19 | CSc1nn(-c2ccccc2)c2cc(NCC3CCNCC3)ccc12 [Compound 112, (3-Methylsulfanyl-1-phenyl-1H-indazol-6-yl)-piperidin-4-ylmethyl-amine] | 420
20 | CSc1nn(-c2ccccc2)c2cc(N3CCN(Cc4cccnc4)CC3)ccc12 [Compound 32, 3-(Methylthio)-1-phenyl-6-(4-(pyridin-3-ylmethyl)piperazin-1-yl)-1H-indazole hydrochloride] | 6060
21 | CSc1nn(-c2ccccc2)c2cc(N3CCN(C4CCNC4)C3=O)ccc12 (stereo not shown) [Compound 25, 1-(3-(Methylthio)-1-phenyl-1H-indazol-6-yl)-3-(pyrrolidin-3-yl)imidazolidin-2-one hydrochloride] | 460
22 | CCc1nn(-c2ccccc2)c2nc(C3CCN(c4cccnc4)CC3)nc(O)c12 [Compound 93, 3-Ethyl-1-phenyl-6-(3,4,5,6-tetrahydro-2H-[1,3′]bipyridinyl-4-yl)-1H-pyrazolo[3,4-d]pyrimidin-4-ol] | 7900

Row | Compound | IC50 [nM]
23 | CSc1nn(-c2ccc(N)cc2)c2cc(CN3CCNCC3)ccc12 [Compound 115, 4-(3-Methylsulfanyl-6-piperazin-1-ylmethyl-indazol-1-yl)-phenylamine] | > 51000
24 | CCc1nn(-c2ccccc2)c2cc(N3CCC(N4CCNCC4)C3)ccc12 (stereo not shown) [Compound 43, 3-Ethyl-1-phenyl-6-(3-(piperazin-1-yl)pyrrolidin-1-yl)-1H-indazole hydrochloride] | 2350
25 | Cc1nn(-c2ccccc2)c2nc(-c3ccc(NC4CCNCC4)cc3)cc(O)c12 [Compound 101, 3-Methyl-1-phenyl-6-[4-(piperidin-4-ylamino)-phenyl]-1H-pyrazolo[3,4-b]pyridin-4-ol] | 890
26 | CCc1nn(-c2ccccc2)c2cc(NC(=O)c3ccc4[nH]cnc4c3)ccc12 [Compound 38, N-(3-Ethyl-1-phenyl-1H-indazol-6-yl)-1H-benzo[d]imidazole-5-carboxamide] | 940
27 | CSc1nn(-c2ccc([N+](=O)[O-])cc2)c2cc(CN3CCNCC3)ccc12 [Compound 130, 3-Methylsulfanyl-1-(4-nitro-phenyl)-6-piperazin-1-ylmethyl-1H-indazole] | 44900
28 | CCN(CC1CCNCC1)c1ccc2c(SC)nn(-c3ccccc3)c2c1 [Compound 108, Ethyl-(3-methylsulfanyl-1-phenyl-1H-indazol-6-yl)-piperidin-4-ylmethyl-amine] | 890
29 | CCc1nn(-c2ccccc2)c2cc(N3CCC4(CCNC4)C3)ccc12 (stereo not shown) [Compound 51, 6-(2,7-Diaza-spiro[4.4]non-2-yl)-3-ethyl-1-phenyl-1H-indazole hydrochloride] | 1470
30 | CSc1nn(-c2ccccc2)c2cc(NC(=O)C3CNC3)ccc12 [Compound 2, N-(3-(Methylthio)-1-phenyl-1H-indazol-6-yl)azetidine-3-carboxamide hydrochloride] | 220
31 | Cc1nn(-c2ccccc2)c2cc(N3CCNCC3)ccc12 [Compound 59, 3-Methyl-1-phenyl-6-(piperazin-1-yl)-1H-indazole] | 1280
32 | CSc1nn(-c2ccccc2)c2cc(OCC3CCNCC3)ccc12 [Compound 107, 3-Methylsulfanyl-1-phenyl-6-(piperidin-4-ylmethoxy)-1H-indazole] | 440
33 | CSc1nn(-c2ccccc2)c2cc(C=CC3CCCN3)ccc12 (stereo not shown) [Compound 175, 3-Methylsulfanyl-1-phenyl-6-(2-pyrrolidin-2-yl-vinyl)-1H-indazole] | 610
34 | CSc1nn(-c2ccccc2)c2cc(N3CCN(C(=O)c4cccnc4)CC3)ccc12 [Compound 31, (4-(3-(Methylthio)-1-phenyl-1H-indazol-6-yl)piperazin-1-yl)(pyridin-3-yl)methanone] | 4950
35 | CSc1nn(-c2ccccc2)c2cc(NC(=O)CN3CCNCC3)ccc12 [Compound 131, N-(3-Methylsulfanyl-1-phenyl-1H-indazol-6-yl)-2-piperazin-1-yl-acetamide] | 680
36 | CSc1nn(-c2ccc(F)cc2)c2cc(C3=CCNCC3)ccc12 [Compound 139, 1-(4-Fluoro-phenyl)-3-methylsulfanyl-6-(1,2,3,6-tetrahydro-pyridin-4-yl)-1H-indazole] | 230
37 | Cc1nn(-c2ccccc2)c2nc(C3CCN(C(=O)C4CCNCC4)CC3)nc(O)c12 [Compound 87, [4-(4-Hydroxy-3-methyl-1-phenyl-1H-pyrazolo[3,4-d]pyrimidin-6-yl)-piperidin-1-yl]-piperidin-4-yl-methanone hydrochloride] | > 30000
38 | Cc1nn(-c2ccccc2)c2nc(C3CCN(C4CCNC4)CC3)nc(O)c12 (stereo not shown) [Compound 88, 3-Methyl-1-phenyl-6-(1-pyrrolidin-3-yl-piperidin-4-yl)-1H-pyrazolo[3,4-d]pyrimidin-4-ol hydrochloride] | 1510
39 | CSc1nn(-c2ccccc2)c2cc(NC(=O)C3CCNC3)ccc12 (stereo not shown) [Compound 5, N-(3-(Methylthio)-1-phenyl-1H-indazol-6-yl)pyrrolidine-3-carboxamide hydrochloride] | 590
40 | CCOc1cc(-c2ccc(N3CCN(C)CC3)cc2)nc2c1c(CC)nn2-c1ccccc1 [Compound 103, 4-Ethoxy-3-ethyl-6-[4-(4-methyl-piperazin-1-yl)-phenyl]-1-phenyl-1H-pyrazolo[3,4-b]pyridine] | 660
41 | CSc1nn(-c2ccc([N+](=O)[O-])cc2)c2cc(C3=CCN(C(=O)CN)CC3)ccc12 [Compound 144, 2-Amino-1-{4-[3-methylsulfanyl-1-(4-nitro-phenyl)-1H-indazol-6-yl]-3,6-dihydro-2H-pyridin-1-yl}-ethanone] | > 10000
42 | CSc1nn(-c2cc(F)cc(F)c2)c2cc(N3CCN(C4CCNCC4)CC3)ccc12 [Compound 126, 1-(3,5-Difluoro-phenyl)-3-methylsulfanyl-6-(4-piperidin-4-yl-piperazin-1-yl)-1H-indazole] | 4220
43 | CCc1nn(-c2ccccc2)c2cc(OC3CN(C4CCNCC4)C3)ccc12 [Compound 41, 3-Ethyl-1-phenyl-6-(1-(piperidin-4-yl)azetidin-3-yloxy)-1H-indazole hydrochloride] | > 30000
